Results taken from the METLIN SMRT retention time set (Domingo-Almenara et al. 2019).

Experiment: gradient 5% acetonitrile 3 min, to 50% in 2 min, to 85% in 15 min, held 3 min, 100 µL/min
Details: column: Zorbax Extend-C18 2.1 x 50 mm; eluents: water / acetonitrile, 0.1% formic acid
Procedure, shortened: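 A Zorbax Extend-C18 column (2.1 × 50 mm, 1.8 μm) run at 100 μL/min with water and acetonitrile, both containing 0.1% formic acid, separated mixtures of ~100 pure standards. The HPLC was coupled to a quadrupole time-of-flight mass spectrometer operated in positive and negative ionization mode, with dead and dwell volumes of 40 μL and 900 μL. Each retention time was taken from a computationally picked adduct peak that was then manually inspected.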

With `COc1ccc(CCc2nc3nccc(-c4ccc(F)cc4OC)n3n2)cc1` the RP-LC retention time was 916 s.
Compound `Cc1ccc(N2CC(C(=O)Nc3cc(-c4nc(C)cs4)sc3C)CC2=O)cc1` (centres undefined) has an RP-LC retention time of 848 s.
Work on `COc1ccccc1CNC(=O)Cn1ccc2ccc(-c3nnc(C)o3)cc21` yielded an RP-LC retention time of 763 s.
Compound `CCCN1C(=O)c2c(C(=O)NCc3ccccc3)ncn2CC1(C)C(=O)NCCC(C)C` (centres undefined) has an RP-LC retention time of 817 s.
With `COc1ccc2c(c1)c(CN1CCC(C(=O)NCCc3ccco3)CC1)cn2C` the RP-LC retention time was 671 s.
Work on `O=C(CN1CCN(Cc2cccc(Cl)c2)C1=O)NCc1ccncc1` yielded an RP-LC retention time of 599 s.
`Cc1cc(=O)n(CC(=O)Nc2cccc(Cl)c2)c(N(C)Cc2ccccc2)n1` gave an RP-LC retention time of 797 s.
Work on `O=C(CSc1nccn1Cc1ccco1)NC1CCCCC1` yielded an RP-LC retention time of 589 s.
With `COc1ccc(-c2nc(NCCCN3CCOCC3)c3ccccc3n2)cc1` the RP-LC retention time was 557 s.
Work on `COCCCNC(=O)C1(C)Cn2nc(-c3ccccc3)cc2C(=O)N1Cc1cccc(OC)c1` (centres undefined) yielded an RP-LC retention time of 887 s.
For `CCn1c(=O)c(C)nc2cc(-c3noc(Cc4ccccc4Br)n3)ccc21`, the RP-LC retention time was 1070 s.
Work on `CC(C)(C(N)=O)c1ccccc1` yielded an RP-LC retention time of 712 s.
In the case of `O=C(NCc1nnnn1C1CCCCC1)OCc1ccccc1`, the RP-LC retention time is reported as 757 s.
In the case of `Cc1sc(-c2cc(C(F)(F)F)on2)cc1S(=O)(=O)NCCC(C)C`, the RP-LC retention time is reported as 1200 s.
`CCc1cc(C(=O)Nc2cc(C)ccc2C)nc2ccnn12` showed an RP-LC retention time of 1140 s.
For `CCN1CCCn2cc(S(=O)(=O)Nc3cc(F)ccc3C)cc2C1=O`, the RP-LC retention time was 729 s.
With `CCOc1ccc(CNC(=O)C2CCCN(c3nnc(C)c4c(C)n(-c5ccc(C)cc5)nc34)C2)cc1` (centres undefined) the RP-LC retention time was 785 s.
Compound `CN(CC1(C)CCOCC1)C(=O)c1c(F)cccc1Cl` has an RP-LC retention time of 813 s.
Work on `CCN1CCN(C(=O)C2CC(c3ccccc3)=NO2)CC1` (centres undefined) yielded an RP-LC retention time of 593 s.
For `O=C([C@@H]1C[C@H](F)CN1S(=O)(=O)c1cccc(F)c1)N1CCCCC1`, the RP-LC retention time was 805 s.
Compound `CCCNC(=O)C1CCN(S(C)(=O)=O)c2cc(Cl)ccc2O1` (centres undefined) has an RP-LC retention time of 747 s.
Compound `O=C(Cn1cnc2nc(N3CCOCC3)ncc2c1=O)NCc1cccc(C(F)(F)F)c1` has an RP-LC retention time of 687 s.
`Cc1nnc([C@@H]2CC(F)(F)CN2C(=O)c2n[nH]c3ccccc23)o1` showed an RP-LC retention time of 666 s.
With `COC(=O)c1cc(C2CC2)nc2c1c(=O)n(Cc1cccc(F)c1)c(=O)n2C` the RP-LC retention time was 1130 s.
Work on `Cn1cccc1CN(C(=O)COc1ccc(Cl)cc1Cl)C1CC1` yielded an RP-LC retention time of 1040 s.
In the case of `CCc1ccc(NC(=O)N2CCc3nc(-c4ccc(OC)cc4)ncc3C2)cc1`, the RP-LC retention time is reported as 995 s.
`Cc1nn(-c2ccccc2)c(C)c1S(=O)(=O)N1CCC(C(=O)NCCc2cccs2)CC1` gave an RP-LC retention time of 881 s.
Compound `O=C(NCCc1csc(-c2ccccc2)n1)C1CCN(S(=O)(=O)c2cccc(F)c2)CC1` has an RP-LC retention time of 922 s.
Compound `Cc1ccc2[nH]cc(CCNC(=O)c3sc4ncccc4c3-n3cccc3)c2c1` has an RP-LC retention time of 1070 s.
With `CCCCCn1c(=O)c2ccccc2n(Cc2nc(-c3ccc(F)cc3)no2)c1=O` the RP-LC retention time was 1270 s.
For `Cc1cc(F)ccc1NC(=O)Cn1nc2cc(-c3ccccc3)nc(C)n2c1=O`, the RP-LC retention time was 909 s.
For `CCc1noc2nc(C)n(CC(=O)NCc3ccc(C)cc3)c(=O)c12`, the RP-LC retention time was 829 s.
With `O=C(Cn1c(=O)c(CCC(=O)NC2CC2)nc2ccccc21)NCc1ccccc1Br` the RP-LC retention time was 736 s.
For `O=C(O)CCC(=O)Nc1ccccc1Cl`, the RP-LC retention time was 616 s.
`O=C(NCc1noc(C2CCCCC2)n1)c1coc(C2CC2)n1` showed an RP-LC retention time of 889 s.
For `Cc1ccc(NC(=O)C2CCCN(c3ccc(=O)n(-c4cccc(Cl)c4)n3)C2)cc1C` (centres undefined), the RP-LC retention time was 960 s.
In the case of `Cc1ccc(-n2c(CN3CCN(C(=O)Nc4ccc5c(c4)OCCO5)CC3)nc3cccnc32)cc1`, the RP-LC retention time is reported as 676 s.
`Cc1ccc(-c2nn3c(N4CCN(c5ccccn5)CC4)cc(C)nc3c2C)cc1` showed an RP-LC retention time of 613 s.
`CCOc1ccc(CN2CCc3nc(N4CCN(c5ccccc5F)CC4)ncc3C2)cc1` gave an RP-LC retention time of 834 s.
Compound `COc1ccc(N2CCN(Cc3nc4nc(C)cc(N5CCCCC5)n4n3)CC2)cc1` has an RP-LC retention time of 660 s.
`CC1CCN(c2cc(-n3cnc(C(=O)NC4CCCCC4)c3)ncn2)CC1` showed an RP-LC retention time of 1030 s.
For `Cc1cccc(NC(=O)Cc2cn3cc(F)ccc3n2)c1C`, the RP-LC retention time was 600 s.
With `COc1cc(NC(=O)N2CCCC2c2nncn2C2CCCC2)cc(OC)c1` (centres undefined) the RP-LC retention time was 677 s.
`COc1cc(NC(=O)COc2nc(C)nc3ccccc23)cc(OC)c1` gave an RP-LC retention time of 735 s.
In the case of `COc1ccc(-c2nnc(COc3cccc(NC(=O)C(NC(=O)c4ccco4)C(C)C)c3)o2)cc1` (centres undefined), the RP-LC retention time is reported as 1010 s.
Compound `CCOCC(=O)N1CC(F)(F)C[C@H]1c1nc(C(=O)NC)no1` has an RP-LC retention time of 626 s.
`Cc1cc(N2CCN(C(=O)Nc3ccc4c(c3)OCO4)CC2)nc(N2CCCCC2)n1` gave an RP-LC retention time of 660 s.
With `Cc1ccc(-c2ncccc2CNS(=O)(=O)c2ccc(Br)s2)cc1` the RP-LC retention time was 786 s.
For `O=S(=O)(Cc1ccccc1Cl)N1CCc2nc(-c3ccc(F)cc3)ncc2C1`, the RP-LC retention time was 1100 s.
With `O=C1CCC(NC(=O)c2ccccc2)C(=O)N1` (centres undefined) the RP-LC retention time was 650 s.
In the case of `COc1ccc(N2CCN(CC(O)COc3c(C)cccc3C)CC2)cc1` (centres undefined), the RP-LC retention time is reported as 698 s.
For `Cc1ccccc1-c1nc2nc(C)c(CC(=O)N3CCCC3)c(C)n2n1`, the RP-LC retention time was 735 s.
Work on `O=C(Cn1c(=O)c(=O)n(Cc2ccccc2)c2ncccc21)NCCc1ccco1` yielded an RP-LC retention time of 797 s.
Work on `Cc1cc(C)c(S(=O)(=O)N2CCc3c(c(-c4nnc(-c5ccc(F)cc5)o4)nn3C)C2)c(C)c1` yielded an RP-LC retention time of 1090 s.
In the case of `Cc1csc(-c2ccc(CNC(=O)C3CCOC3)cc2)n1` (centres undefined), the RP-LC retention time is reported as 678 s.
Compound `COc1ccc(NC(=O)C2CCCN(c3ncnc4c3nc3n4CCCCC3)C2)c(OC)c1` (centres undefined) has an RP-LC retention time of 777 s.
Work on `COc1ccc2c(c1)c(CN1CCC(C(=O)NCCC3=CCCCC3)CC1)cn2C` yielded an RP-LC retention time of 730 s.
In the case of `COCCCN1CCC(NC(=O)c2cc(Cl)c(N)c3c2OCC3)CC1`, the RP-LC retention time is reported as 641 s.
In the case of `O=C(NCCC1CCN(C(=O)Nc2ccccc2F)CC1)c1ccoc1`, the RP-LC retention time is reported as 713 s.
`O=C(C1CCCCC1)N1CCc2nc(-c3ccc(Cl)cc3)ncc2C1` showed an RP-LC retention time of 1180 s.
In the case of `Cc1cccc(NC(=O)c2ccc3nn(CC(=O)Nc4ccc(C)c(F)c4)c(=O)n3c2)c1`, the RP-LC retention time is reported as 810 s.
`COc1ccccc1CNC(=O)C1CCCN(C(=O)C2Sc3ccccc3NC2=O)C1` (centres undefined) gave an RP-LC retention time of 736 s.
`Cc1cnc(C(=O)NC2C[C@H]3CC[C@@H](C2)N3C(=O)c2ccoc2)cn1` (some centres undefined) showed an RP-LC retention time of 601 s.
`CC1Oc2ccc(S(=O)(=O)N3CCC(C(=O)NCc4ccc5c(c4)OCO5)CC3)cc2NC1=O` (centres undefined) showed an RP-LC retention time of 755 s.
`CNC(=O)C1CCCN(c2nc3ncn(CC(=O)Nc4ccc(C(F)(F)F)cc4)c(=O)c3s2)C1` (centres undefined) gave an RP-LC retention time of 711 s.
`Cc1c(C(=O)C(=O)Nc2cccc(F)c2)c2ccccc2n1C` showed an RP-LC retention time of 960 s.
For `Cc1nn(-c2ccc(C(=O)NC(C)C)cc2)c2c1C(=O)CC(C)(C)C2`, the RP-LC retention time was 775 s.
For `Cc1ccc(-n2ccc(=O)c(-c3nc(-c4ccccc4Br)no3)n2)cc1`, the RP-LC retention time was 950 s.
Work on `Cc1noc(-c2ccc(NC(=O)c3cn(C)nn3)cc2)n1` yielded an RP-LC retention time of 658 s.
`O=C(CSc1nc(=O)[nH]c2c1CCCC2)N1CCCc2ccccc21` showed an RP-LC retention time of 729 s.
`Cc1nc(-c2ccc(OC3CCN(C(=O)CCc4nc5ccccc5[nH]4)C3)cc2)no1` (centres undefined) gave an RP-LC retention time of 643 s.
In the case of `CCCC(=O)Nc1nc2ccc(CCC(=O)N3CCN(c4ccccn4)CC3)cc2s1`, the RP-LC retention time is reported as 603 s.
For `CCOc1ccccc1NC(=O)Cn1nc(C2CC2)cc1C(=O)N1CCCC1`, the RP-LC retention time was 850 s.
Compound `CCCOc1nc2ccccc2nc1N1CCCC(C(=O)Nc2ccccc2)C1` (centres undefined) has an RP-LC retention time of 1250 s.
`COc1ccc(CN2C=C(C(=O)OCc3nc(-c4cccs4)no3)C(C)=NS2(=O)=O)cc1` gave an RP-LC retention time of 1090 s.
Compound `CCN1CCN(C(=O)CN2C(=O)C3CCCCN3c3ccc(S(=O)(=O)N4CCCC4)cc32)CC1` (centres undefined) has an RP-LC retention time of 644 s.
For `COCC(=O)N1CCCc2ccc(NC(=O)CSc3ccc(F)cc3)cc21`, the RP-LC retention time was 732 s.
Work on `O=S(=O)(NCCc1ccsc1)c1cccnc1` yielded an RP-LC retention time of 686 s.
`O=C(Nc1cc(F)ccc1F)N1CCC(CCNC(=O)C2(c3ccccc3)CC2)CC1` showed an RP-LC retention time of 948 s.
Compound `COc1ccccc1-c1csc(NC(=O)c2sc(COc3ccc(Cl)c(C)c3)nc2C)n1` has an RP-LC retention time of 1360 s.
For `CC(C)(C)NC(=O)N1CCC(CNC(=O)c2cccs2)CC1`, the RP-LC retention time was 655 s.
`Cc1ccc(-n2nc(C)c3c(=O)n(CC(=O)NCc4ccccc4Cl)ccc32)cc1` showed an RP-LC retention time of 872 s.
In the case of `Cc1ccc(-c2n[nH]c3c2CN(C(=O)c2cnn4cccnc24)CC3)cc1`, the RP-LC retention time is reported as 648 s.
`Cc1ccc(C(=O)COC(=O)c2ccc3nc(C)c(C)nc3c2)cc1` gave an RP-LC retention time of 965 s.
Work on `Cc1c(Cl)cccc1NC(=O)c1cnc(-c2ccccc2)nc1-c1ccncc1` yielded an RP-LC retention time of 954 s.
With `Cc1ccc(CC(=O)NCc2c(C)noc2C)cc1` the RP-LC retention time was 742 s.
In the case of `COc1ccccc1OCC(O)Cn1c(C2CC(=O)N(c3ccccc3)C2)nc2ccccc21` (centres undefined), the RP-LC retention time is reported as 736 s.
In the case of `COc1ccc(-c2nc(-c3ccc4c(c3)ncn4CCN3CCOCC3)no2)c(C)c1`, the RP-LC retention time is reported as 666 s.
`CN(C)S(=O)(=O)c1ccc(-c2nnc(C(=O)N3CCCCC3)o2)cc1` showed an RP-LC retention time of 824 s.
